From paper PMC6570783, “The Novel C5aR Antagonist DF3016A Protects Neurons Against Ischemic Neuroinflammatory Injury” (Neurotoxicity Research, 2019)

Experiments:
C5aR = C5aR (Homo sapiens, UniProt P21730); conditions: read-out: IC50, inhibition of C5a-induced human PMN migration; human PMNs, 10 nM C5a
Description: (§1) Migration of human, rat, and mouse PMNs was evaluated using a 48-well micro-chemotaxis chamber, as previously described (Bertini et al. [2004]). […] Fifty microliters of cell suspension (1.5 × 10^6/ml for human PMNs, 3.0 × 10^6/ml for rat and mouse PMNs) pre-incubated at 37 °C for 15 min in the presence or absence of different concentrations of DF3016A or vehicle was seeded in the upper compartment. The chamber was incubated at 37 °C in air with 5% CO2 for 45 min. At the end of incubation, filters containing migrated cells were removed, fixed, and stained with Diff-Quik, and five oil immersion fields at high magnification (×100; Zeiss microscope) were counted after sample coding.

mouse C5aR = mouse C5aR (Mus musculus, UniProt P30993); conditions: read-out: IC50, mouse C5aR (C5a-induced PMN migration); mouse PMNs, 10 nM mC5a
Description: (§2) Murine and rat PMNs were isolated from peritoneal cavities injected with 1.5 ml of 3% thioglycolate in saline to male Balb/c mice (20–25 g and 7–9 weeks of age, provided by Charles River, Calco, Italy) or with […] of 3% thioglycolate in saline to SD rat (370–450 g and 3–4 months of age provided by Charles River, UK). Four hours after injection, the animals were sacrificed by decapitation and peritoneal cavities were washed with saline. PMNs were recovered and centrifuged at 600×g for 10 min. The pellet was resuspended in Hank’s Balanced Salt Solution (HBSS); then the cells were counted using Türk’s solution and diluted at 3 × 10^6 cells/ml.
as §1

rat C5aR = rat C5aR (Rattus norvegicus, UniProt P97520); conditions: read-out: IC50, rat C5aR (C5a-induced PMN migration); rat PMNs, 10 nM rC5a
Description: as §2, §1

[1] = test system: spontaneous cell migration; assay: Spontaneous PMN migration; assay type: cell-based
Description: (§8) Migration of human, rat, and mouse PMNs was evaluated using a 48-well micro-chemotaxis chamber, as previously described (Bertini et al. [2004]). […] The chamber was incubated at 37 °C in air with 5% CO2 for 45 min. At the end of incubation, filters containing migrated cells were removed, fixed, and stained with Diff-Quik, and five oil immersion fields at high magnification (×100; Zeiss microscope) were counted after sample coding.

[2] = test system: PMN migration induced by CXCL8; assay: CXCL8-induced PMN migration; assay type: cell-based; conditions: up to 10 μM
Description: as §8

[3] = test system: PMN migration induced by CXCL1; assay: CXCL1-induced PMN migration; assay type: cell-based; conditions: up to 10 μM
Description: as §8

[4] = test system: PMN migration induced by CCL3; assay: CCL3-induced PMN migration; assay type: cell-based; conditions: up to 10 μM
Description: as §8

[5] = test system: PMN migration induced by fMLP; assay: fMLP-induced PMN migration; assay type: cell-based; conditions: up to 10 μM
Description: as §8

[6] = test system: PMN migration induced by CXCL12; assay: CXCL12-induced PMN migration; assay type: cell-based; conditions: up to 10 μM
Description: as §8

[7] = test system: LPS-induced PGE2 accumulation; assay: LPS-induced PGE2 production in peritoneal murine macrophages; assay type: cell-based, mouse; conditions: up to 10 μM, LPS 1 μg/ml, 24 h
Description: Cells were placed at 1 × 10^6 ml^−1 in 96-well plates and non-adherent cells removed by gentle washing 2 h later. DF3016A was then added to adherent macrophages 20 min before adding lipopolysaccharide (LPS) (1 μg ml^−1). Control cells received vehicle at the appropriate dilution. Total prostaglandin E2 (PGE2) production was determined in the supernatant 24 h after LPS stimulation. PGE2 levels were measured by Enzyme Immunoassay (EIA) Kit (sensitivity 2.5 pg per well).

[8] = test system: panel of GPCRs, enzymes, ion channels, transporters, and nuclear receptors (44 targets); assay: SafetyScreen44 Panel radioligand binding (Eurofins Cerep); conditions: 10 μM, triplicate
Description: DF3016A was tested in the SafetyScreen44 Panel performed at Eurofins Cerep SA (France) by radio ligand binding assays to assess the off-target activities towards a panel of GPCRs, enzymes, ion channels, transporters, and nuclear receptors. All selected targets are recommended by four major pharmaceutical companies (Bowes et al. [2012]). The compound was tested at a single concentration of 10 μM in triplicate.
DF3016A was dissolved in dimethyl sulfoxide (DMSO) to achieve 10 mM stock solution that was diluted with water/HBSS to a final concentration of 10 μM. Cell membrane homogenates (48 μg protein) were incubated for 60 min at 22 °C with the respective reference compound in the absence or presence of the test compound in a buffer containing 50 mM Tris-HCl (pH 7.4), 2 mM MgCl2, and 1 mM ethylene-diamine-tetra-acetic acid (EDTA). After incubation, the samples were filtered rapidly under vacuum through glass fiber filters (GF/B, Packard Instruments, Meriden, CT, USA) presoaked with 0.3% polyethyleneimine (PEI), and rinsed several times with ice-cold 50 mM Tris-HCl using a 96-sample cell harvester (Unifilter, Packard Instruments). The filters were dried, then counted for radioactivity in a scintillation counter (Topcount, Packard Instruments) using a scintillation cocktail (Microscint-O, Packard Instruments).

[9] = Rat plasma protein binding (rPPB); assay type: in vitro ADME
[10] = Rat brain tissue binding (rBTB); assay type: in vitro ADME
[11] = Rat oral pharmacokinetics; assay type: in vivo
[12] = test system: cortical neurons exposed to OGD/R; conditions: 500 nM, 1 h OGD, 3 to 48 h of reperfusion
Description: DF3016A (500 nM) was added to the cortical neurons which were exposed to O2 and glucose deprivation with glucose-free Neurobasal in Hypoxia Chamber for Cell Culture (BioSpherix) at 5% CO2 atmosphere-[…]. O2 concentration was monitored by using a ProOx sensor controller, and the 0.03% O2 value was considered acceptable. Cells were incubated in this anaerobic chamber for 1 h and then removed from the anaerobic environment. […] Cells of control group were treated identically except that they were not exposed to OGD/R.

[13] = test system: cortical neurons exposed to OGD/R; assay: AO/ET staining of live and dead neurons after OGD/R; assay type: cell-based, rat; conditions: 500 nM, OGD/R 3 h
Description: DF3016A (500 nM) was added to the cortical neurons which were exposed to O2 and glucose deprivation with glucose-free Neurobasal in Hypoxia Chamber for Cell Culture (BioSpherix) at 5% CO2 atmosphere-85% N2. O2 concentration was monitored by using a ProOx sensor controller, and the 0.03% O2 value was considered acceptable. Cells were incubated in this anaerobic chamber for 1 h and then removed from the anaerobic environment. […] Cells of control group were treated identically except that they were not exposed to OGD/R.
Images have been acquired through a fluorescent microscope combined with a Digital Color Camera.

[14] = test system: Ca2+ influx in OGD/R neurons; assay: Fluo-4 NW calcium assay in OGD/R neurons; assay type: cell-based, rat; conditions: 500 nM, P < 0.001 OGD/R-DF vs OGD/R-UT
Description: Neuronal cells, grown on 96-well plates, were exposed to OGD/R and treated with 500 nM of DF3016A; growth media were removed, and 100 μl of the dye loading solution (F36206 Fluo-4 NW Calcium Assay Kit, Invitrogen) was added carefully to each well. Plates were incubated at 37 °C for 30 min and then at room temperature for an additional 30 min. […] Data were presented as the ratio between Ca^++ influx and neuronal viability.

C5aR gene expression = C5aR gene expression (qRT-PCR) in OGD/R neurons; assay type: cell-based, rat; conditions: 500 nM
Description: (§3) The total RNA, including microRNA (miRNA), from cells in cultures were extracted with Ribospin Kit (GenaAll) followed by Riboclear Plus Kit (GenaAll) to remove residual DNA according to the manufacturer’s protocols.
(§4) Total mRNA transcription (2μg/20 μl) was performed using High Capacity cDNA Reverse Transcription Kit (Applied Biosystems) and reverse transcription for MicroRNA (10 ng/15 μl) was performed using TaqMan MicroRNA Reverse Transcription Kit (Applied Biosystems).
(§5) The qPCR 20 μl/reactions for miR-181a (assay ID: hsa-miR-181a) and C5aR (assay ID: Rn02134203_s1) were conducted in triplicate using TaqMan® MicroRNA Assay Kit and TaqMan® Gene Expression Assays protocol (Applied Biosystems), respectively, following the manufacturer’s instructions. Reactions were performed using a Step One Plus Applied Biosystems thermocycler (Life Technologies) with the default protocol. Briefly, for each reaction 40 cycles of amplification with the following profile were performed: 95 °C for 10 min for the first cycle, followed by 40 cycles of 95 °C for 15 s, and 60 °C for 1 min.
(§6) Relative intensity of PCR-specific amplicons was calculated using the 2^−ΔΔCt method (Livak and Schmittgen [2001]). Beta-actin (assay ID: Rn00667869_m1) and U6 (assay ID: 001973) small nuclear RNA (snRNA) (Han et al. [2015]) were used as internal control to normalize the level of each transcript.

C5a protein level = assay: C5a protein release (ELISA) in OGD/R neurons; assay type: cell-based, rat; conditions: 500 nM
Description: (§7) Quantitative measurements of cellular proteins (C5a, TNF-α, IL-1β, and IL-6) in cell culture supernatants were determined by ELISA methods using Rat IL-6, Mouse TNFα, Rat IL-1β PicoKine™ ELISA Kits (Boster Biological Technology) and Rat C5a ELISA Kit (Elabscience Biotechnology Inc.) according to the manufacturer’s instructions. All tests were performed in triplicate.

TNF-α = TNF-α release (ELISA) in OGD/R neurons; assay type: cell-based, rat; conditions: 500 nM
Description: as §7

IL-1β = IL-1β release (ELISA) in OGD/R neurons; assay type: cell-based, rat; conditions: 500 nM
Description: as §7

miR-181a = miR-181a expression (qPCR) in OGD/R neurons; assay type: cell-based, rat; conditions: 500 nM, P < 0.001 OGD/R-DF vs OGD/R-UT
Description: as §3, §4, §5, §6

[15] = rat, in vivo, po, 30 mg/kg
Description: SD rats (370–450 g and 3–4 months of age at the time of testing) were purchased from Charles River, UK. All animals were housed in groups of three per room under controlled conditions of temperature (19 to 21 °C) and humidity (50%), and maintained on a 12-h light/dark cycle (lights on at 7 and lights off at 19 including a 30-min dawn/dusk lights increasing/dimming period, respectively). Animals had free access to rat chow pellets CRM (P) and water except during the experimental procedures. All animals were weighed immediately before the test. The test drug was administered orally at 30 mg/kg using saline solution (0.9% NaCl) as vehicle. […] Cardiac blood samples, 0.6 ml, were obtained and placed in EDTA-coated tubes. The tubes were spun at 13,000 rpm for 4 min and 100 μl of supernatant taken and immediately stored at − 80 °C prior to analysis. Plasma samples were analyzed by liquid chromatography–mass spectrometry (LC-MS/MS) following extraction by protein precipitation with internal standard in acetonitrile, and levels of parent measured against an extracted calibration curve of plasma samples spiked with test compound. The whole brain was harvested then placed in a plastic tube and immediately frozen at − 80 °C until required. Brain tissue were homogenized and analyzed by LC-MS/MS following extraction by protein precipitation, and levels of parent measured against an extracted calibration curve of brain homogenate samples spiked with the test compound. Total exposure levels of the test compound in brain and plasma at 2 h postdose were determined.

[16] = test system: primary rat cortical neurons; assay: Neuronal viability (MTS), toxicity of DF3016A
Description: Neuronal cultures were prepared from cortices of 17–18-day-old Sprague-Dawley rat fetuses. Two pregnant rats, provided from Envigo RMS S.r.l. (Z.I. Azzida, 57–33,049 S. Pietro al Natisone, Udine Italy), were euthanized by exposition to a gradually rising concentration of CO2 and then decapitated. Rat brains were isolated using standard procedures, and after the elimination of meninges, the cortical tissues were dissociated by trituration and digestion with 20 U/ml papain (Invitrogen, Karlsruhe, Germany) for 30 min at 37 °C. Approximately 1 × 10^6 cells in 1 ml DMEM/F12 medium containing 0.2 mM Glutamax, 1% penicillin/streptomycin (Pen/Strep), 5% fetal bovine serum, and 5% horse serum were seeded into poly-D-lysine pretreated plates. […] Neurons were maintained in a humidified atmosphere (5% CO2/95% air) at 37 °C and used for experiments after 8–10 days in vitro.
DF3016A was dissolved in DMSO. The final concentration of DMSO in the medium was below 0.1%. […]
Quantifications of neuronal viability were assessed by MTS method using Cell Titer One Solution Cell Proliferation Assay (Promega Corporation Madison, WI, USA) based on 3-(4,5-dimethylthiazol-2-yl)-5-(3-carboxymethoxyphenil)-2-(4-sulfophenyl)-2H-tetrazolium (MTS) (dilution 1:10). Viable cells with active metabolism convert MTT into formazan, detected by absorbance measurements at 490 nm in a BioTeek Elx800 microplate reader.

C5aR, sequence (P21730 whole entry): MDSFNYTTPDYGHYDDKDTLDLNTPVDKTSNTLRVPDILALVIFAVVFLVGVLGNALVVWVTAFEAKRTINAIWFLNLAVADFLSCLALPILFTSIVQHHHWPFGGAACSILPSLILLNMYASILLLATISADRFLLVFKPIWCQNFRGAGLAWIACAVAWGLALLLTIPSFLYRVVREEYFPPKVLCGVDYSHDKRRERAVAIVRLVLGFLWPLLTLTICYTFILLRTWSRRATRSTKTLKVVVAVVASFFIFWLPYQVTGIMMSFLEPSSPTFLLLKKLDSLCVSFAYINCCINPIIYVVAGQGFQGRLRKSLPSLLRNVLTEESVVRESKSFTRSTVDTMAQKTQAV
mouse C5aR, sequence (P30993 whole entry): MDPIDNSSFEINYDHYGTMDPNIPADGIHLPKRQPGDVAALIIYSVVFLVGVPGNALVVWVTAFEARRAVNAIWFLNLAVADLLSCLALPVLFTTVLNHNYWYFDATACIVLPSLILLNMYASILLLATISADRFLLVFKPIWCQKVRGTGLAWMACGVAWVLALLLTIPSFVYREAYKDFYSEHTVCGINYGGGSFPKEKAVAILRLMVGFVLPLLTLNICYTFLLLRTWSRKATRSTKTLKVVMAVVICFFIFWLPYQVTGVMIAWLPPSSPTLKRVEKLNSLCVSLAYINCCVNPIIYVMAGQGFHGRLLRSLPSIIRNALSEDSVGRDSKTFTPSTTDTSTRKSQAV
rat C5aR, sequence (P97520 whole entry): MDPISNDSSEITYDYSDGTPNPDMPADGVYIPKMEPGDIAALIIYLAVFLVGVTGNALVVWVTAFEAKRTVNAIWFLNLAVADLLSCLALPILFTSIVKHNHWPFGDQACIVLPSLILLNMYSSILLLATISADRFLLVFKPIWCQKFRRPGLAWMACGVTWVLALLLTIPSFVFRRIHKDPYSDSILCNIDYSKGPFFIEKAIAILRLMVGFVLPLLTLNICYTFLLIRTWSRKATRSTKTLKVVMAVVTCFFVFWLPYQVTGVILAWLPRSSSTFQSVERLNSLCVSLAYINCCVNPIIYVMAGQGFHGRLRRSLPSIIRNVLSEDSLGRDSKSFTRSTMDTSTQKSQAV

CC(c1ccc(Nc2nc(C(F)(F)F)cs2)cc1)c1nnn[nH]1 (stereo not shown) [DF3016A]
IC50 (C5aR): 50 nM | IC50 (mouse C5aR): 37 nM | IC50 (rat C5aR): 45 nM | Inhibition of spontaneous cell migration per se [1]: did not inhibit | Effect on PMN migration induced by CXCL8 [2]: no effect | Effect on PMN migration induced by CXCL1 [3]: no effect | Effect on PMN migration induced by CCL3 [4]: no effect | Effect on PMN migration induced by fMLP [5]: no effect | Effect on PMN migration induced by CXCL12 [6]: no effect | Effect on LPS-induced PGE2 accumulation [7]: no effect | Inhibition of the assayed receptors (off-target activities, 44 targets) [8]: did not show any inhibition | rPPB Fu (free plasma fraction) [9]: 0.7% | rBTB Fu (free brain fraction) [10]: 7.7% | Oral t1/2 [11]: 6.1 h | Rat bioavailability [11]: 69% | Effect on OGD/R-induced cell death (MTS) [12]: significantly attenuated OGD/R-induced cell death | Neuronal death by AO/ET staining [13]: close to that of control | Ca2+ influx in OGD/R neurons [14]: significant reduction | C5aR gene expression after OGD/R (C5aR gene expression): reverted C5aR gene expression to the control levels | C5a protein level after OGD/R (C5a protein level): restored C5a protein level to not significant values compared to control | TNF-α release after OGD/R (TNF-α): restoration of control conditions | IL-1β release after OGD/R (IL-1β): restoration of control conditions | miR-181a over-expression after OGD/R (miR-181a): completely attenuated | Plasma Cmax [15]: 104,683 ± 8867 ng/mL | Kp (brain to plasma ratio) ([15]; 2 h): 0.04 | Kpuu (unbound brain to plasma ratio) ([15]; 2 h): 0.44 | Mortality compared to the control ([16]; 10 nM to 5 μM, 24 h, MTS): no significant mortality | Viability changes on longer treatment ([16]; 500 nM, 24, 48, and 72 h): without significant viability changes
